In PMC6501426 (Clinical Epigenetics, 2019):

Columns and labels:
human DNMT1 = target: T1, human DNMT1 (Homo sapiens, UniProt P26358); experiment: DNMT1 assay (radiolabeled SAM, Flashplate); format: biochemical
T1 construct: His; made in house
Experimental: His-DNMT1 (182 kDa, human) was cloned, expressed, and purified as described by Lee et al.. The DNMT1 assay was performed according to Gros et al.. Briefly, the DNMT1 enzymatic assay is based on the use of radiolabeled SAM, and the methylation occurs in homogeneous phase in 384-well microplates. The reaction is performed with DNMT1 at the final concentration of 90 nM in a total volume of 10 μL including also the chemical compound to be tested at the desired concentration, 1.25 μM of SAM//[methyl-^3H] SAM (3TBq/mmol) mix in a ratio of 3:1 and 0.3 μM of biotinylated DNA duplex. DNMT1, as “maintenance” methyltransferase, requires hemimethylated DNA for the reaction. After 2 h incubation at 37 °C, 8 μL of the reaction’s solution is transferred into a streptavidin 96-well scintillant coated Flashplate^TM containing 190 μL of […] in 50 mM Tris-HCl (pH 7.4). The Flashplate^TM is then agitated at room temperature for 1 h and washed. The plate is read with TopCount (PerkinElmer, Villebon-sur-Yvette, France). The greater the DNMT1 inhibition, the lower will be the scintillation signal correlated to the incorporation of the tritiated methyl groups. In this assay, the negative and positive controls were defined as wells without enzyme and wells without any compound but just DMSO, respectively.

[1] = system: methylated UCHL1 promoter EGFP reporter in HCT116 cells; experiment: UCHL1 promoter demethylation assay (EGFP expression, FACS) in HCT116; format: cell-based, human; settings: 5 days, HCT116 with methylated pUCHL1 vector
Experimental: Human colon cancer HCT116 (ATCC, VA, USA) cells were propagated in McCoy’s 5A medium (Euroclone, Milan, Italy) with 10% fetal bovine serum (FBS; Euroclone), 2 mM L-glutamine (Euroclone), and antibiotics (100 U/mL penicillin, 100 µg/mL streptomycin) (Euroclone). For the treatments with MC3353, 5-AZA, and DAC as positive controls, 2 × 10^4 cells were seeded in 6-well plates in triplicate. Cells were treated every 2 days, and the medium was changed. On day 5, cells were observed under a fluorescent microscope. The nuclei were counterstained with DAPI (10 μg/mL, Invitrogen, Tournai, Belgium).
Fluorescence of EGFP and DAPI in living cells was analyzed by Cytation™ 5 Cell Imaging Multi-Mode Reader (BioTeK, Milan, Italy).
Before the transfection, the pUMLIEP vector was linearized by with ClaI restriction enzyme (New England Biolabs, Milan, Italy) and then it was methylated by SssI-methylase (New England Biolabs, Milan, Italy) for 60 min. The methylated vector was transfected into HCT116 cells using Lipofectamine™2000 (Invitrogen, Monza, Italy) and Opti-MEM® (Gibco, Monza, Italy), and stably introduced clones were selected with puromycin (1.0 μg/mL, Sigma-Aldrich, Milan, Italy). The detailed protocol for the generation of cells highly responsive to DNA demethylating agents is described in [27].
Next, the demethylating activity of MC3353 was evaluated in cells transfected with luciferase and EGFP reporter genes driven by the UCHL1 promoter. The UCHL1 promoter is silenced by methylation in human colon cancer and can be demethylated by specific treatments, inducing expression of Metridia luciferase and EGFP reporter genes. In particular, the pUCHL1 vector, after methylation, was transfected into HCT116 colon cancer cells, and the stable clone was obtained by puromycin selection. Afterwards, cells were treated with 5-AZA (5 μM), with DAC (5 μM), or with MC3353 (0.1 μM) for 5 days. Such a low MC3353 dose was used because of its cytotoxicity at higher concentrations in long treatments.

HCT116 cells = experiment: MTT proliferation assay HCT116; format: cell-based, human; settings: 24 and 48 h; MC3353 from 0.5 μM after 48 h; DAC at 10 μM
Experimental: The MTT [3-(4,5-dimethylthiazol-2-yl)-2,5-diphenyltetrazolium bromide] (Sigma-Aldrich, Milan, Italy) assay was used to determine the proliferation of HCT116 clone and DKO HCT116 cells after treatment with MC3353, 5-AZA, and DAC. 5 × 10^4 cells/well for both cell lines were plated in 24-well plate and treated, in duplicate, with compounds at several concentrations for 24 and 48 h of induction. After treatments, MTT solution was added for 3 h at 0.5 mg/mL, the purple formazan crystals were dissolved in DMSO (Sigma-Aldrich, Milan, Italy), and the absorbance was read at a wavelength of 570 nm with reader TECAN M-200.

[2] = system: DNMT3A protein level in HCT116 cells; experiment: Western blot of DNMT3A protein in HCT116; format: cell-based, human; settings: 24 h; MC3353 effect detectable at 0.1 μM
Text: (§1) Cells were lysed in Laemmli buffer; subsequently, the proteins were resolved by sodium dodecyl sulfate-polyacrylamide gel electrophoresis and transferred to a 0.45-μm nitrocellulose membrane (Bio-Rad Laboratories, Hercules, CA). The following primary antibodies were used for immunoblotting: α-E-cadherin (BD Transduction Laboratories, Franklin Lakes, NJ), α-MMP2 (Abcam), α-DNMT3a (Santa Cruz Biotechnologies, Dallas, TX), and α-GAPDH (Millipore Corp., Bedford, MA), used as a loading control. The immune complexes were detected with horseradish peroxidase-conjugated species-specific secondary antiserum (Bio-Rad Laboratories, Milan, Italy) then by enhanced chemiluminescence reaction (Bio-Rad Laboratories, Milan, Italy). Densitometric analysis of protein expression was performed by using the Fiji ImageJ image processing package.
GAPDH was used as a loading control. Blots are representative of two independent experiments

[3] = system: MMP2 protein in PC-3 cells; experiment: Western blot of MMP2 in PC-3; format: cell-based, human; settings: 1 μM, 24 h
Text: as §1
Fig. 8 Effects of MC3353 on E-cadherin and MMP2 protein expression levels in PC-3 cancer cells. Cells were treated with vehicle (DMSO) used as control (CTR) or MC3353 for 24 h. a E-cadherin and MMP2 protein detection by western blot. GAPDH was used as a loading control. Blots are representative of three independent experiments. b Densitometric analysis of E-cadherin and MMP2 protein expression. Significance is represented as *p < 0.05 related to the control groups. Data were obtained from three independent experiments and expressed as mean ± SEM

T1 sequence (P26358 whole entry): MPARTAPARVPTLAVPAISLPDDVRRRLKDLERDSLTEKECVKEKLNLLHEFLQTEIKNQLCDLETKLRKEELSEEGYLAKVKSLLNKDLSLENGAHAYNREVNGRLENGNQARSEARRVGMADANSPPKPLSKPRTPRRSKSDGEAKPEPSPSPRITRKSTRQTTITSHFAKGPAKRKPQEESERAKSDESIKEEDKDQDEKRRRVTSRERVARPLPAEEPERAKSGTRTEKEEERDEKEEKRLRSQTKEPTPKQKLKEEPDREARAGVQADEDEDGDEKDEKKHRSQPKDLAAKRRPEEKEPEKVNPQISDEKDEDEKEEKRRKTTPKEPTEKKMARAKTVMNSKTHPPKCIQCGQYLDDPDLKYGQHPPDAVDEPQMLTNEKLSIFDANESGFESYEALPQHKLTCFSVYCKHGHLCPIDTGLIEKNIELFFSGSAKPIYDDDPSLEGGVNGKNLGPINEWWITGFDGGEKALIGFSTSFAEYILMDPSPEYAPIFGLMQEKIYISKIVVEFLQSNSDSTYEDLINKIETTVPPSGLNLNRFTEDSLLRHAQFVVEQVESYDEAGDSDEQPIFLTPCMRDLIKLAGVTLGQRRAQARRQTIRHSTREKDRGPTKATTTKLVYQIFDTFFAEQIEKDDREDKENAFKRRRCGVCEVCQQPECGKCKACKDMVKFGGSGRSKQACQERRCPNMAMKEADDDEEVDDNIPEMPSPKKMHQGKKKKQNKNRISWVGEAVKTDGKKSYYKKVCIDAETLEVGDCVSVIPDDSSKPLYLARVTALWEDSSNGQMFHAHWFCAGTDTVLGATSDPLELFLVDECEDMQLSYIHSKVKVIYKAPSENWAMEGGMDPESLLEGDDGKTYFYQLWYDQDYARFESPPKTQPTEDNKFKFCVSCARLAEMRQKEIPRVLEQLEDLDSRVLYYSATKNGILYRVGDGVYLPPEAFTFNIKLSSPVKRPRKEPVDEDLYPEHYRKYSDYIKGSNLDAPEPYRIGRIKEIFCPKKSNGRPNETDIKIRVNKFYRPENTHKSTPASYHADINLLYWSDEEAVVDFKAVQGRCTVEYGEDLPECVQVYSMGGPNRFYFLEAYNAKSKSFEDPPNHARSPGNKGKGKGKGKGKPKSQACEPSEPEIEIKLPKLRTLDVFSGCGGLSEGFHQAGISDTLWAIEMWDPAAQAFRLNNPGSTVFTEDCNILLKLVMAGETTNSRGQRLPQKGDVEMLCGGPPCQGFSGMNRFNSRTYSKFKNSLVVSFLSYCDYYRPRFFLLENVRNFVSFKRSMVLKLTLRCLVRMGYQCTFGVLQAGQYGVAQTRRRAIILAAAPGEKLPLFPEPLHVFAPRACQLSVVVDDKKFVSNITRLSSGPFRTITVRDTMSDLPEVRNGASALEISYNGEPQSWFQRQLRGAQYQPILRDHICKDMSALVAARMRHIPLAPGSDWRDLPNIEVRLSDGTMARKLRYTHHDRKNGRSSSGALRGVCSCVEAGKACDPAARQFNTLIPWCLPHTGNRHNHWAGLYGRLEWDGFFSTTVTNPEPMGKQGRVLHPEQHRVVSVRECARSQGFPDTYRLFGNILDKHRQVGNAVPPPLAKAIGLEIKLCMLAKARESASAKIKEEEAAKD

SMILES | EC50 (human DNMT1; radioactivity assay, at least two independent experiments, read-out: EC50 ± SD, hDNMT1) [µM] | fold less effective than SGI-1027 against hDNMT1 (human DNMT1; ratio of EC50 values) [fold] | fold more potent than RG-108 against hDNMT1 (human DNMT1; ratio of EC50 values) [fold] | EGFP gene expression induction (FACS) ([1]; 0.1 μM) [%] | effect on HCT116 proliferation (MTT) (HCT116 cells) | DNMT3A protein expression level (western blot), HCT116 [2] | MMP2 protein level (western blot, densitometry), PC-3 [3] | EGFP gene expression induction (FACS) ([1]; 5 μM) [%]
O=C(Nc1ccc(NC(=O)c2ccc(Nc3ccnc4ccccc34)cc2)cc1)OCc1ccccc1 [MC3353, Benzyl (4-(4-(quinolin-4-ylamino)benzamido)phenyl)carbamate] | 67 ± 4 | 5.6 | 6 | 81.4 | markedly decreased HCT116 proliferation | DNMT3A protein downregulation was observed | reduced MMP2 protein levels | –
Nc1ncn([C@H]2C[C@H](O)[C@@H](CO)O2)c(=O)n1 [DAC, 5-aza-2′-deoxycytidine, reference compound] | – | – | – | – | modest proliferation inhibition | – | – | 49.7
